Measurements from patent publication EP4389113A1, “DOSAGE FORM FOR INTRAMEDULLARY INJECTION OR IMPLANTATION COMPRISING ELTROMBOPAG FOR USE IN THE IMPROVEMENT OF HEMATOPOIETIC STEM CELL TRANSPLANTATION” (PK MED, priority 2022, dated 2024).

What was measured:
[1] = after oral administration of a 50 mg tablet; cited from earlier work
human MMP-9 = target: T1, human MMP-9 (Homo sapiens, UniProt P14780); assay: Proteolysis of SDF-1α by activated MMP-9, multiplex western blot; assay type: biochemical
T1 construct: made in house; host or cells: Sf9 cells
T1 sequence (P14780 107-707 limits assumed): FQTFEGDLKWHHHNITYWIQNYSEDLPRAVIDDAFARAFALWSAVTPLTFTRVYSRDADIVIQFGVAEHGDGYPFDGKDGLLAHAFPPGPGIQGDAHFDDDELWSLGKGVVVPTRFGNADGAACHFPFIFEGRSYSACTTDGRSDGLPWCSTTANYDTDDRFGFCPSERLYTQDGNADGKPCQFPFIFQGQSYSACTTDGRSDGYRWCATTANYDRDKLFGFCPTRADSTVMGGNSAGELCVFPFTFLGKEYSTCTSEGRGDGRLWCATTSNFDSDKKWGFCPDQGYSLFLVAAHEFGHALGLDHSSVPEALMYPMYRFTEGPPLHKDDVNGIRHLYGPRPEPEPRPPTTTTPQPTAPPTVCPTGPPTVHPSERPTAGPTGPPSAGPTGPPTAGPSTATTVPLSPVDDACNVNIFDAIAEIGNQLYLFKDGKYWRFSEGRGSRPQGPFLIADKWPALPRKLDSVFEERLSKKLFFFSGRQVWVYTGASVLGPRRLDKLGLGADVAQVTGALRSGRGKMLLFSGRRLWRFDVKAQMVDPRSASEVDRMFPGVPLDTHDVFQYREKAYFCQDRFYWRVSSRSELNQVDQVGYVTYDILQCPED
Procedure: (§1) • Particle size was determined using a Malvern Mastersizer MS3000 laser diffraction particle size analyzer. A 1 mg/ml microparticles in deionized water preparation was introduced in the apparatus and the measurement run 3 times. The results shown in the examples are the mean of the three measures. • Eltrombopag microparticle drug load was determined by first solubilizing 10 mg of drug-loaded polymeric microparticles in 2,5 mL of an acetonitrile/water mixture at a 80/20 v/v ratio. The medium was then centrifuged for 15 min at 4000 rpm and the supernatant filtrated through a 0.45 µm PTFE filter (Acrodisc PTFE). A 2 ml aliquot of the filtrated supernatant was then analyzed by HPLC to determine the microparticle drug load. HPLC analysis was conducted using a silica-based reversed-phase C18 column [Kinetex C18, 100mm × 4,6 mm, 2,6 µm particle size] and a mobile phase consisting in [acetonitrile/ammonium formate (10 mM) 80/20 v/v adjusted at pH 2]. The flow rate was set at 0,5 mL/min, the injection volume was 10µL and the UV detection was set at 244 nm. • For incubation of Eltrombopag olamine with activated human proteases, proMMP-8 and pro MMP-9 proteases were first activated. Human proMMP-8 (Cat. no. 908-MP, R&D systems) at 100 µg/ml in buffer containing 50 mM Tris, 150 mM NaCl (sodium chloride), 5 mM CaCl2 (calcium chloride) and 0.01% tween 20 (pH 7.6) was activated by incubation with 1 mM p-aminophenylmercuric acetate for 1h at 37°C. Human proMMP-9 was expressed in Sf9 cells, purified by gelatin-sepharose chromatography and activated by incubation with the catalytic domain of MMP-3 (cat. No. 444217, Merck Millipore). Specifically, human proMMP-9 at 920 µg/ml in the same described buffer as for MMP-8 activation was incubated with the catalytic domain of MMP-3 at a molar ratio of 1/100 (MMP-3/MMP-9) for 2h at 37°C in. The final concentration of MMP-9 was 10 µM and the final concentration of MMP-3 was 0.1 µM. Concentrated eltrombopag olamine solution was prepared by solubilization in water at a concentration of 10 mg/ml for 24h on rotor at 4°C, and further diluted at the final concentration needed. Activated MMP-8 or MMP-9 were then incubated at a final concentration of 625 nM in Eltrombopag olamine at different concentrations (50 µM, 10 µM, 1 µM and 0.1 µM) in a final volume of 3µl for 30 minutes at 37°C in calcium-free buffer containing 50 mM Tris, 150 mM NaCl, 0.01% tween 20 (pH 7.6) using low protein-binding tubes (Protein LoBind tubes, Eppendorf). • Incubation of human SDF-1α (Cat. no. 300-28A, Peprotech) in the solution containing the activated human proteases and eltrombopag olamine was done at a MMP/SDF-1 molar ratio of 1/5 in the same calcium-free buffer and tubes described, with a final SDF-1 α concentration of 3.125 µM and a final volume of 4µl at 37°C for 2h. A negative control without eltrombopag olamine was similarly prepared. • SDF-1 proteolysis was analyzed by multiplex western blot. All samples were diluted in reducing loading buffer (10% β-mercaptoethanol, 0.1% bromophenol blue, 4% SDS (sodium dodecyl sulfate), 20% glycerol, 125 mM Tris, pH 6.8) and boiled at 90°C for 20 min. Next, the equivalent of 100 ng SDF-1 was loaded onto Novex 16% tricine gels (Cat. no. EC6695BOX, Invitrogen). The Chameleon Duo Pre-stained Protein Ladder was used as a molecular weight using 6ul in one well. Proteins in the samples were separated by denaturing SDS-PAGE using tricine running buffer (100 mM Tris, 100 mM Tricine, 0.1% SDS, pH 8.3) under a constant voltage of 120V (±60 min). After electrophoresis, proteins were transferred to polyvinylidene difluoride (PVDF) membranes with the Trans-Blot Turbo Transfer System (Biorad) with Trans-Blot Turbo RTA Mini 0.45 µm low fluorescence PVDF Transfer Kit (Cat. No. 1704274, Biorad). […]

human MMP-8 = target: T2, human MMP-8 (Homo sapiens, UniProt P22894); assay: Proteolysis of SDF-1α by activated MMP-8, multiplex western blot; assay type: biochemical
T2 construct: purchased R&D systems 908-MP
T2 sequence (P22894 101-467): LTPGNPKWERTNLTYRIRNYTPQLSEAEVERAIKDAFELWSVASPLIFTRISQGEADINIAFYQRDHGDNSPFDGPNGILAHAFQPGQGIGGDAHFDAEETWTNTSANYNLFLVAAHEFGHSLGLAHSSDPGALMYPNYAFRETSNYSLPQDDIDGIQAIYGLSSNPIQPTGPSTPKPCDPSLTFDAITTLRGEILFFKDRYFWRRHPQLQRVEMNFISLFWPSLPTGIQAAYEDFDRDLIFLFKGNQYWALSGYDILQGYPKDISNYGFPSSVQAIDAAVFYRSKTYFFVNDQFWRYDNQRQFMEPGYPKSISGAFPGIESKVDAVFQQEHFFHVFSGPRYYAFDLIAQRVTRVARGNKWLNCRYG
Procedure: as §1

[2] = SDF-1 plus MMP-9 plus 0.1 µM eltrombopag olamine
[3] = SDF-1 plus MMP-9 plus 1 µM eltrombopag olamine
[4] = SDF-1 plus MMP-9 plus 10 µM eltrombopag olamine
[5] = SDF-1 plus MMP-9 plus 50 µM eltrombopag olamine
[6] = SDF-1 plus MMP-8 plus 0.1 µM eltrombopag olamine
[7] = SDF-1 plus MMP-8 plus 1 µM eltrombopag olamine
[8] = SDF-1 plus MMP-8 plus 10 µM eltrombopag olamine
[9] = SDF-1 plus MMP-8 plus 50 µM eltrombopag olamine

SMILES: CC1=NN(c2ccc(C)c(C)c2)C(=O)/C1=N\Nc1cccc(-c2cccc(C(=O)O)c2)c1O [EPAG, 3'-[(2Z)-[1-(3,4-dimethylphenyl)-1,5-dihydro-3-methyl-5-oxo-4H-pyrazol-4-ylidene]hydrazino]-2'-hydroxy-[1,1'-biphenyl]-3-carboxylic acid]
- maximum plasmatic concentration [1]: 14 µM

SMILES: CC1=NN(c2ccc(C)c(C)c2)C(=O)/C1=N\Nc1cccc(-c2cccc(C(=O)O)c2)c1O.NCCO.NCCO [eltrombopag olamine, 3'-{(2Z)-2-[1-(3,4-dimethylphenyl)-3-methyl-5-oxo-1,5-dihydro-4H-pyrazol-4-ylidene]hydrazino}-2'-hydroxy-3-biphenylcarboxylic acid - 2-aminoethanol (1:2)]
- intact SDF-1α retrieved (human MMP-9; MMP-9 in the presence of 50 µM eltrombopag olamine, only 20% in its absence): 72%
- N-term intact SDF-1α (RFUs) (human MMP-9; [2]): 0,013 RFUs
- Ratio of intact/total SDF-1α (human MMP-9; [2]): 0,003
- Total SDF-1α (RFUs) (human MMP-9; [2]): 3,951 RFUs
- N-term intact SDF-1α (RFUs) (human MMP-9; [3]): 0,012 RFUs
- Ratio of intact/total SDF-1α (human MMP-9; [3]): 0,003
- Total SDF-1α (RFUs) (human MMP-9; [3]): 3,644 RFUs
- N-term intact SDF-1α (RFUs) (human MMP-9; [4]): 0,010 RFUs
- Ratio of intact/total SDF-1α (human MMP-9; [4]): 0,002
- Total SDF-1α (RFUs) (human MMP-9; [4]): 4,142 RFUs
- Ratio of intact/total SDF-1α (human MMP-9; [5]): 0,007
- Total SDF-1α (RFUs) (human MMP-9; [5]): 4,687 RFUs
- N-term intact SDF-1α (RFUs) (human MMP-9; SDF-1 plus MMP-9 plus 50 µM eltrombopag olamine, MMP/SDF-1α molar ratio 1/5, 37°C, 2h): 0,033 RFUs
- intact SDF-1α retrieved (human MMP-8; MMP-8 in the presence of 50 µM eltrombopag olamine, only 3.5% in its absence): 30%
- N-term intact SDF-1α (RFUs) (human MMP-8; [6]): 0,0006 RFUs
- Ratio of intact/total SDF-1α (human MMP-8; [6]): 0,0001
- Total SDF-1α (RFUs) (human MMP-8; [6]): 7,501 RFUs
- N-term intact SDF-1α (RFUs) (human MMP-8; [7]): 0,0001 RFUs
- Ratio of intact/total SDF-1α (human MMP-8; [7]): 0,0000
- Total SDF-1α (RFUs) (human MMP-8; [7]): 7,986 RFUs
- N-term intact SDF-1α (RFUs) (human MMP-8; [8]): 0,0001 RFUs
- Ratio of intact/total SDF-1α (human MMP-8; [8]): 0,0000
- Total SDF-1α (RFUs) (human MMP-8; [8]): 6,989 RFUs
- Ratio of intact/total SDF-1α (human MMP-8; [9]): 0,0002
- Total SDF-1α (RFUs) (human MMP-8; [9]): 10,430 RFUs
- N-term intact SDF-1α (RFUs) (human MMP-8; SDF-1 plus MMP-8 plus 50 µM eltrombopag olamine, MMP/SDF-1α molar ratio 1/5, 37°C, 2h): 0,0020 RFUs
